Reference: patent publication US12059422B2 (MEI Pharma, Inc., priority 2011, dated 2024)

What was measured:
PI3K alpha = biological target: T1, PI3K alpha (Homo sapiens, UniProt P42336); assay: Luciferase-based luminescence assay (KinaseGlo), PI3K alpha enzymatic activity; format: biochemical; conditions: inhibition of enzymatic activity, 25 μM ATP, read-out: IC50 p110α
T1 construct: purchased Invitrogen Corp., Carlsbad, CA, USA
Summary of the method: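 KinaseGlo luminescence measured ATP remaining after PIP2 (50 μM) phosphorylation with 25 μM ATP in HEPES pH 7.5 buffer with CHAPS and DTT. Final enzyme was 1.65 nM alpha (1 h reaction) or 6.86 nM delta (2 h reaction). IC50 was curve-fitted from 10 concentrations.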

mTOR = mTOR (Homo sapiens, UniProt P42345); assay: mTOR inhibition (Table 1); format: biochemical; conditions: Table 1, no method described
PI3Kδ = biological target: T2, PI3Kδ (Homo sapiens, UniProt O00329); assay: ELISA assay for PI3Kδ: sandwich ELISA, phosphorylation of AKT (Thr308) in Raji cells; format: cell-based; conditions: for IC50: cellular, pAKT (Thr308), Raji cells, anti-Human IgM stimulation, read-out: IC50 p110δ; for α/δ ratio / β/δ ratio / γ/δ ratio: ratio of cellular IC50 values, Table 2
T2 construct: endogenous in cells; host or cells: Raji (ATCC #CCL-86)
T2 sequence (O00329 whole entry): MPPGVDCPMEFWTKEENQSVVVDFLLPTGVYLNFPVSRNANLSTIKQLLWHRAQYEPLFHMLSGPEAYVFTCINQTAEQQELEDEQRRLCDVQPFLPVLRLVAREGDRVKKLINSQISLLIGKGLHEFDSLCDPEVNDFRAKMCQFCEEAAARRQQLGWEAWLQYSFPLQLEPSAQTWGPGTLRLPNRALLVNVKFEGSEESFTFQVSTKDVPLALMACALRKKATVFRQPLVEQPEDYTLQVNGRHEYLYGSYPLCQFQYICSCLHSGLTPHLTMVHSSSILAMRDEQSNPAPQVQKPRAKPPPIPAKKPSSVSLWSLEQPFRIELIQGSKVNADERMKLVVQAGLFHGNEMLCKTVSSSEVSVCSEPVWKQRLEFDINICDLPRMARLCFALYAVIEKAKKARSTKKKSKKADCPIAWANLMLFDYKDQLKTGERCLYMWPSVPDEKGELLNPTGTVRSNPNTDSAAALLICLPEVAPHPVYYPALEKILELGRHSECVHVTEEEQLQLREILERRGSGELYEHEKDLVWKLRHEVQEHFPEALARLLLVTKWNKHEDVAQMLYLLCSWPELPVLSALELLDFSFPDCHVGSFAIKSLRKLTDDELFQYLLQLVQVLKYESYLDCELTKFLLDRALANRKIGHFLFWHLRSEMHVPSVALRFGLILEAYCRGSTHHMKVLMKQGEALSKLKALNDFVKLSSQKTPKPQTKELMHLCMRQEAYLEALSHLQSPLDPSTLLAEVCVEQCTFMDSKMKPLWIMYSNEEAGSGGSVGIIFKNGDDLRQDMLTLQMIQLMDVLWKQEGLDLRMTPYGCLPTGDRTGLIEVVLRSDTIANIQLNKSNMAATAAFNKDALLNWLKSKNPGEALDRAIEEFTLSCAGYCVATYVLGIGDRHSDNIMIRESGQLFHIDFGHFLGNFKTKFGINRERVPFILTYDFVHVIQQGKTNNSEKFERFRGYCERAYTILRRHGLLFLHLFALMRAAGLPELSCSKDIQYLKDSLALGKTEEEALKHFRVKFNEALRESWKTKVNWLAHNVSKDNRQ
T2 sequence (P27986 whole entry partner): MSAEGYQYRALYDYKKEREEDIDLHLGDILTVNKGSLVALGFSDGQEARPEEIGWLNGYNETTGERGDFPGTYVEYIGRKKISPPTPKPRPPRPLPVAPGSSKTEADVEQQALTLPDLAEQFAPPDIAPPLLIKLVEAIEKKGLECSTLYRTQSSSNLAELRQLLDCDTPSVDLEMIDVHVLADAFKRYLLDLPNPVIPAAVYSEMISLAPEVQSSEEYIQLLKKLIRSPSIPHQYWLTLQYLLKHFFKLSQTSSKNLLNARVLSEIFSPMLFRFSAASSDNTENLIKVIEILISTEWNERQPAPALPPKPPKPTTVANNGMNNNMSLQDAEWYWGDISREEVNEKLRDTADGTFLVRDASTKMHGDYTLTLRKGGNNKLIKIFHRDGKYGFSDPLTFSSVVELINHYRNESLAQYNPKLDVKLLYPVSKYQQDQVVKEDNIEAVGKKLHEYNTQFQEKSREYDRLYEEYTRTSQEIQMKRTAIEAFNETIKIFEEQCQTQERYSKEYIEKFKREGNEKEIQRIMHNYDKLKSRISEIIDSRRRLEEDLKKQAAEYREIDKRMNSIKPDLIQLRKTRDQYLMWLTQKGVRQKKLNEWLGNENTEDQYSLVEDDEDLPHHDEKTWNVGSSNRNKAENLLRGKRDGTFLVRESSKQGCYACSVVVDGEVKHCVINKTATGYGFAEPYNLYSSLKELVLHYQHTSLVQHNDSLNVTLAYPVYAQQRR
Summary of the method: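 Raji cells, serum-starved 2 hrs, treated with compound (10 concentrations) for 2 hrs at 37° C, then stimulated 30 min with anti-human IgM. Lysates analysed by sandwich ELISA for pAKT Thr308 and total AKT with luminescent read-out. IC50 from curve fitting.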

T1 sequence (P42336 whole entry, species assumed): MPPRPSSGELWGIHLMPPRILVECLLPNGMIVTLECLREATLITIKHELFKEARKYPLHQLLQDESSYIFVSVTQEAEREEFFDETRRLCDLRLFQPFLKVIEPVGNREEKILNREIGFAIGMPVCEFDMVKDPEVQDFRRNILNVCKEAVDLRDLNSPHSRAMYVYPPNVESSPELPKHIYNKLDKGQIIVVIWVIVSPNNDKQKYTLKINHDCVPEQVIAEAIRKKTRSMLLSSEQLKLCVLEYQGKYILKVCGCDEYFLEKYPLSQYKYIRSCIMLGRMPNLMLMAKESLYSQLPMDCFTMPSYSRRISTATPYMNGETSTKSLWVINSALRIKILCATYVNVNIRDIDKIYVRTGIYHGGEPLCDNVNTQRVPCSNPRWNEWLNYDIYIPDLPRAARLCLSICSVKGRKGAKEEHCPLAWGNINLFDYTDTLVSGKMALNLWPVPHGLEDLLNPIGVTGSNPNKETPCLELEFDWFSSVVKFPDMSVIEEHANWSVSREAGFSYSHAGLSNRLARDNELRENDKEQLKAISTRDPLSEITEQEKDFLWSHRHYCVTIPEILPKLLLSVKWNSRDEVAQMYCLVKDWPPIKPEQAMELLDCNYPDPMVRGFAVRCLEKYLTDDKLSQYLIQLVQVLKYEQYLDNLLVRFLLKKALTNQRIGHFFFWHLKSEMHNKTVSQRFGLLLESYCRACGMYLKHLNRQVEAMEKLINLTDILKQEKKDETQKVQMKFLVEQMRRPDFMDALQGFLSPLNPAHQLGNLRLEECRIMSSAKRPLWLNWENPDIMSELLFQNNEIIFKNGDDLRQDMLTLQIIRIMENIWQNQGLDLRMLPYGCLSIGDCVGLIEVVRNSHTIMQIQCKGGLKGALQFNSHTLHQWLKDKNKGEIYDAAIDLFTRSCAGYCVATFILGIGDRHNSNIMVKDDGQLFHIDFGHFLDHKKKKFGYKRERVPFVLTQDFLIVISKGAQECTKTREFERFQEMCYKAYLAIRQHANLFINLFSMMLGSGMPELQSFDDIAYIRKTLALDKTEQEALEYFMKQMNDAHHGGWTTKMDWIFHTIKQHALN
T1 sequence (P27986 whole entry partner, species assumed): as the sequence (P27986 whole entry partner) above

Row | Structure (SMILES) | IC50 (PI3K alpha) | IC50 (mTOR) | IC50 (PI3Kδ) | α/δ ratio (PI3Kδ) | β/δ ratio (PI3Kδ) | γ/δ ratio (PI3Kδ)
1 | CC(C)(Cc1ccccc1-c1ccccc1F)Nc1nc(N2CCOCC2)nc(-n2c(C(F)F)nc3ccccc32)n1 [Compound A59, 4-(2-(difluoromethyl)-1H-benzo[d]imidazol-1-yl)-N-(1-(2′-fluorobiphenyl-2-yl)-2-methylpropan-2-yl)-6-morpholino-1,3,5-triazin-2-amine] | > 500 nM | > 500 nM | ≤ 100 nM | A’ | A’ | A’
2 | Cc1ccccc1-c1ccccc1CC(C)(C)Nc1nc(N2CCOCC2)nc(-n2c(C(F)F)nc3ccccc32)n1 [Compound A60, 4-(2-(difluoromethyl)-1H-benzo[d]imidazol-1-yl)-N-(2-methyl-1-(2′-methylbiphenyl-2-yl)propan-2-yl)-6-morpholino-1,3,5-triazin-2-amine] | > 500 nM | > 500 nM | ≤ 100 nM | A’ | A’ | A’
3 | CC(C)(Cc1ccccc1-c1ccccc1Cl)Nc1nc(N2CCOCC2)nc(-n2c(C(F)F)nc3ccccc32)n1 [Compound A61, 4-(2-(difluoromethyl)-1H-benzo[d]imidazol-1-yl)-N-(1-(6′-chlorobiphenyl-2-yl)-2-methylpropan-2-yl)-6-morpholino-1,3,5-triazin-2-amine] | > 500 nM | > 500 nM | ≤ 100 nM | A’ | A’ | A’
4 | CC(C)(Cc1ccccc1-c1cccnc1F)Nc1nc(N2CCOCC2)nc(-n2c(C(F)F)nc3ccccc32)n1 [Compound A62] | > 500 nM | > 500 nM | ≤ 100 nM | A’ | A’ | A’
5 | CC(C)(Cc1ccccc1-c1cncnc1)Nc1nc(N2CCOCC2)nc(-n2c(C(F)F)nc3ccccc32)n1 [Compound A63, 4-(2-(difluoromethyl)-1H-benzo[d]imidazol-1-yl)-N-(2-methyl-1-(2-(pyrimidin-5-yl)phenyl)propan-2-yl)-6-morpholino-1,3,5-triazin-2-amine] | 200 to 500 nM | > 500 nM | ≤ 100 nM | A’ | A’ | A’
6 | CN1CCN(c2cc(-c3ccccc3CC(C)(C)Nc3nc(N4CCOCC4)nc(-n4c(C(F)F)nc5ccccc54)n3)ccn2)CC1 [Compound A64, 4-(2-(difluoromethyl)-1H-benzo[d]imidazol-1-yl)-N-(2-methyl-1-(2-(2-(4-methylpiperazin-1-yl)pyridin-4-yl)phenyl)propan-2-yl)-6-morpholino-1,3,5-triazin-2-amine] | > 500 nM | > 500 nM | ≤ 100 nM | A’ | A’ | A’
7 | CC(C)(Cc1ccccc1-c1cccc(CN2CCOCC2)c1)Nc1nc(N2CCOCC2)nc(-n2c(C(F)F)nc3ccccc32)n1 [Compound A65, 4-(2-(difluoromethyl)-1H-benzo[d]imidazol-1-yl)-N-(2-methyl-1-(3′-(morpholinomethyl)biphenyl-2-yl)propan-2-yl)-6-morpholino-1,3,5-triazin-2-amine] | > 500 nM | > 500 nM | ≤ 100 nM | A’ | B’ | A’
8 | COc1cccc(-c2ccccc2CC(C)(C)Nc2nc(N3CCOCC3)nc(-n3c(C(F)F)nc4ccccc43)n2)c1 [Compound A66, 4-(2-(difluoromethyl)-1H-benzo[d]imidazol-1-yl)-N-(1-(3′-methoxybiphenyl-2-yl)-2-methylpropan-2-yl)-6-morpholino-1,3,5-triazin-2-amine] | > 500 nM | > 500 nM | ≤ 100 nM | A’ | A’ | A’
9 | COc1ccc(-c2ccccc2CC(C)(C)Nc2nc(N3CCOCC3)nc(-n3c(C(F)F)nc4ccccc43)n2)cc1 [Compound A67, 4-(2-(difluoromethyl)-1H-benzo[d]imidazol-1-yl)-N-(1-(4′-methoxybiphenyl-2-yl)-2-methylpropan-2-yl)-6-morpholino-1,3,5-triazin-2-amine] | > 500 nM | > 500 nM | ≤ 100 nM | A’ | A’ | A’
10 | CC(C)(Cc1ccccc1C1CCNCC1)Nc1nc(N2CCOCC2)nc(-n2c(C(F)F)nc3ccccc32)n1 [Compound A68, 4-(2-(difluoromethyl)-1H-benzo[d]imidazol-1-yl)-N-(2-methyl-1-(2-(piperidin-4-yl)phenyl)propan-2-yl)-6-morpholino-1,3,5-triazin-2-amine] | > 500 nM | > 500 nM | ≤ 100 nM | A’ | A’ | A’
11 | CCN1CCC(c2ccccc2CC(C)(C)Nc2nc(N3CCOCC3)nc(-n3c(C(F)F)nc4ccccc43)n2)CC1 [Compound A70, 4-(2-(difluoromethyl)-1H-benzo[d]imidazol-1-yl)-N-(1-(2-(1-ethylpiperidin-4-yl)phenyl)-2-methylpropan-2-yl)-6-morpholino-1,3,5-triazin-2-amine] | > 500 nM | > 500 nM | ≤ 100 nM | A’ | A’ | A’
12 | CC(C)N1CCC(c2ccccc2CC(C)(C)Nc2nc(N3CCOCC3)nc(-n3c(C(F)F)nc4ccccc43)n2)CC1 [Compound A71, 4-(2-(difluoromethyl)-1H-benzo[d]imidazol-1-yl)-N-(1-(2-(1-isopropylpiperidin-4-yl)phenyl)-2-methylpropan-2-yl)-6-morpholino-1,3,5-triazin-2-amine] | > 500 nM | > 500 nM | ≤ 100 nM | A’ | A’ | A’
13 | CC(=O)N1CCC(c2ccccc2CC(C)(C)Nc2nc(N3CCOCC3)nc(-n3c(C(F)F)nc4ccccc43)n2)CC1 [Compound A72, 4-(2-(difluoromethyl)-1H-benzo[d]imidazol-1-yl)-N-(2-methyl-1-(2-(1-acetylpiperidin-4-yl)phenyl)propan-2-yl)-6-morpholino-1,3,5-triazin-2-amine] | 100 to 200 nM | > 500 nM | ≤ 100 nM | A’ | A’ | A’
14 | CC(C)(Cc1ccccc1C1CCN(S(C)(=O)=O)CC1)Nc1nc(N2CCOCC2)nc(-n2c(C(F)F)nc3ccccc32)n1 [Compound A73, 4-(2-(difluoromethyl)-1H-benzo[d]imidazol-1-yl)-N-(2-methyl-1-(2-(1-(methylsulfonyl)piperidin-4-yl)phenyl)propan-2-yl)-6-morpholino-1,3,5-triazin-2-amine] | 200 to 500 nM | > 500 nM | ≤ 100 nM | A’ | C’ | A’
15 | CC(C)(Cc1ccccc1C1CCNC1)Nc1nc(N2CCOCC2)nc(-n2c(C(F)F)nc3ccccc32)n1 (stereo not drawn) [Compound A74, 4-(2-(difluoromethyl)-1H-benzo[d]imidazol-1-yl)-N-(2-methyl-1-(2-(pyrrolidin-3-yl)phenyl)propan-2-yl)-6-morpholino-1,3,5-triazin-2-amine] | > 500 nM | > 500 nM | ≤ 100 nM | A’ | C’ | A’
16 | CN(C)CCCc1ccccc1CC(C)(C)Nc1nc(N2CCOCC2)nc(-n2c(C(F)F)nc3ccccc32)n1 [Compound A76, 4-(2-(difluoromethyl)-1H-benzo[d]imidazol-1-yl)-N-(1-(2-(3-(dimethylamino)propyl)phenyl)-2-methylpropan-2-yl)-6-morpholino-1,3,5-triazin-2-amine] | > 500 nM | > 500 nM | ≤ 100 nM | A’ | A’ | A’
